Values joined by “and” are separate entries in the source; they are usually repeats but may differ in a detail not shown here. Equal values may be shown once. Read-outs that look alike come from different tables or passages of the source.
Legend:
[1] = target: T1, WT PfMDH (Plasmodium falciparum, UniProt Q6VVP7); experiment: Microscale thermophoresis (MST) binding to fluorescently labeled PfMDH
T1 construct: The full-length WT PfMDH gene was cloned into pETM-13; made in house; host or cells: E. coli Rosetta 2 (DE3) pLysS
T1 sequence (Q6VVP7 entry or part of it): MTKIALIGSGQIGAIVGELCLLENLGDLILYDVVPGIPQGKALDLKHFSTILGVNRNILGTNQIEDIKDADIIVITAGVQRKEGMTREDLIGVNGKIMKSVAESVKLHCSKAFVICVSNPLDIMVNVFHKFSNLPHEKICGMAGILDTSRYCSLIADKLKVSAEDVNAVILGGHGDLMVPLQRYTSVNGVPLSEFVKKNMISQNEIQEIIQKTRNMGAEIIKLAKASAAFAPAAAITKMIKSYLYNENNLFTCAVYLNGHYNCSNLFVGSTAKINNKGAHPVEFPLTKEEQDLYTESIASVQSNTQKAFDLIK
Procedure: A Nanotemper MonolithNT.115 instrument (Nano-temper Technologies, GmbH) was used to quantify ligand/protein interactions. Purified PfMDH was labeled using the Red-NHS Monolith Protein Labeling Kit according to the manufacturer’s protocol. All reactions were performed in 100 mM Na-phosphate buffer pH 7.4, 400 mM NaCl, 0.05% Tween-20 in standard capillaries (Nanotemper Technologies GmbH). The ligand was 2× fold diluted starting from 4 mM as the highest concentration; the final protein concentration was 50 nM. All samples were incubated with compounds for about 1 h at room temperature followed by centrifugation at 18,000 rpm (Eppendorf Centrifuge 5415R) before loading into capillaries. Measurement was performed in triplicate at 40% LED intensity and 40% MST power. The Kd model was employed to determine the binding constant using the software MO.Affinity Analysis v2.3 while data collection was performed with MO.Control 2 (Nano-temper Technologies, GmbH).

[2] = target: T2, PfMDH (Plasmodium falciparum, UniProt Q6VVP7); experiment: Kinetics experiment with varying L-malate, substrate inhibition model; format: biochemical
T2 construct: The full-length WT PfMDH gene was cloned into pETM-13; made in house; host or cells: E. coli Rosetta 2 (DE3) pLysS
T2 sequence (Q6VVP7 entry or part of it): as above

[3] = target: T3, V190W PfMDH (Plasmodium falciparum, UniProt Q6VVP7, V190W); experiment: STD-NMR fragment screening, dimeric mutant; format: binding; conditions: 10 μM protein, 1 mM fragment
T3 construct: made in house; host or cells: E. coli (stated expressly only for the WT construct)
T3 sequence (Q6VVP7 whole entry V190W, the tested form may be a part): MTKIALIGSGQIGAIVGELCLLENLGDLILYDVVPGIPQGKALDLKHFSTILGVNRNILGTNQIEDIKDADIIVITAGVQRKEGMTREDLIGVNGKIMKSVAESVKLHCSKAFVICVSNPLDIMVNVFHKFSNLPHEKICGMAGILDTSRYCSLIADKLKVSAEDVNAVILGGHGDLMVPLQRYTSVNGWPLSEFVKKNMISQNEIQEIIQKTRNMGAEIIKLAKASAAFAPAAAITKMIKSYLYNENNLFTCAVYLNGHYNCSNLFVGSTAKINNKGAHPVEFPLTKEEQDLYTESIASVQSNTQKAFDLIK
Procedure: (§1) NMR spectra were acquired on Bruker Avance III (600 MHz) spectrometer at 300 K, equipped with a triple resonance cryoprobe head and an automated SampleJet sample changer. The samples for STD experiments were prepared in 100 mM Na-phosphate pH 7.4, 400 mM NaCl and spectra were recorded in water with 1:100-fold excess of the fragment (dissolved in DMSO at 100 mM) in an additional 10% (v/v) D2O to provide a lock signal. Final protein and ligand concentrations were 10 μM and 1 mM, respectively. Selective saturation of the protein resonances (on resonance spectrum) was performed by irradiating at 0.5 ppm using a series of Eburp2.1000-shaped 90 pulses (50 ms, 1 ms delay between pulses) for a total saturation time of 2.0 s. For the reference spectrum (off-resonance), the samples were irradiated at −10 ppm. On- and off-resonance scans were subtracted using phase cycling. The fragment library screening was performed by testing 300 mixtures containing five fragments each initially. Mixtures that yielded positive STD signals were selected and deconvolved, i.e., fragments that formed “active” mixtures were tested separately. Spectra were analyzed with TopSpin® software, 4.0

[4] = target: T2, PfMDH; experiment: Thermal shift assay (TSA); format: binding; conditions: for TSA melting curve raw signal: triplicate columns; for TSA melting curve raw fluorescence signal: three replicate columns
How it was run: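 10 μM PfMDH with 1 mM compound in 100 mM Na–phosphate pH 7.4, 400 mM NaCl, 10× Sypro Orange; 1% DMSO controls. Melting inflection points taken as Tm; shifts >1 °C read as stabilization, negative shifts as destabilization.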

[5] = target: T1, WT PfMDH; experiment: STD-NMR fragment screening, wild type; format: binding; conditions: 10 μM protein, 100-fold molar excess
Procedure: as §1

[6] = tested on: MDH; conditions: cited from earlier work
[7] = 3 h exposure to 5 μM; cited from earlier work

Nc1nc(-c2ccc(F)c(F)c2)cs1 [4DT, 4-(3,4-difluorophenyl) thiazol-2-amine]
Kd ([1]; MST report, target 50 nM, 25.1°C, n 3, Kd Confidence ± 1.7444E-05, read-out: Kd (MST report)): 99 µM
Kd ([1]; MST, 50 nM labeled WT PfMDH, ligand 240 nM to 4 mM, read-out: Kd): 99 ± 1.7 µM
Ki (substrate inhibition constant of malate) ([2]; in the presence of 63 μM compound, control 12.5 ± 4.2): 63000 ± 31800 µM
Ki (substrate inhibition constant of malate) ([2]; in the presence of 125 μM compound): 72900 ± 41900 µM
STD-NMR binding [3]: binds to dimeric V190W PfMDH
ΔTm at 1000 µM ([4]; 1 mM compound vs DMSO control): -2 ± 0.17 °C
Tm ([4]; 1 mM compound, 10 μM PfMDH, DMSO control Tm 58): 56 ± 0.17 °C
TSA melting curve raw signal ([4]; Temperature 25): 3306.061 and 3342.86 and 3324.801
TSA melting curve raw signal ([4]; Temperature 28.5): 3333.659 and 3382.548 and 3355.546
TSA melting curve raw signal ([4]; Temperature 29): 3336.65 and 3387.196 and 3360.105
TSA melting curve raw signal ([4]; Temperature 29.5): 3339.189 and 3391.098 and 3364.015
TSA melting curve raw signal ([4]; Temperature 30): 3341.416 and 3393.698 and 3368
TSA melting curve raw signal ([4]; Temperature 30.5): 3342.684 and 3395.106 and 3371.797
TSA melting curve raw signal ([4]; Temperature 31): 3343.918 and 3395.986 and 3375.352
TSA melting curve raw signal ([4]; Temperature 31.5): 3345.279 and 3397.252 and 3379.023
TSA melting curve raw signal ([4]; Temperature 32): 3347.139 and 3398.82 and 3383.605
TSA melting curve raw signal ([4]; Temperature 32.5): 3348.867 and 3401.838 and 3388.573
TSA melting curve raw signal ([4]; Temperature 33): 3351.566 and 3406.371 and 3394.323
TSA melting curve raw signal ([4]; Temperature 33.5): 3355.148 and 3412.286 and 3401.055
TSA melting curve raw signal ([4]; Temperature 34): 3359.354 and 3419.075 and 3408.698
TSA melting curve raw signal ([4]; Temperature 34.5): 3364.345 and 3426.84 and 3417.169
TSA melting curve raw signal ([4]; Temperature 35): 3370.925 and 3434.905 and 3426.749
TSA melting curve raw signal ([4]; Temperature 35.5): 3378.766 and 3443.449 and 3437.428
TSA melting curve raw signal ([4]; Temperature 36): 3388.116 and 3452.416 and 3449.193
TSA melting curve raw signal ([4]; Temperature 36.5): 3399.139 and 3461.927 and 3462.335
TSA melting curve raw signal ([4]; Temperature 37): 3411.581 and 3472.191 and 3477.03
TSA melting curve raw signal ([4]; Temperature 37.5): 3425.633 and 3483.607 and 3493.418
TSA melting curve raw signal ([4]; Temperature 38): 3441.177 and 3496.044 and 3511.6
TSA melting curve raw signal ([4]; Temperature 38.5): 3458.245 and 3509.831 and 3531.909
TSA melting curve raw signal ([4]; Temperature 39): 3477.439 and 3525.778 and 3554.709
TSA melting curve raw signal ([4]; Temperature 39.5): 3498.925 and 3543.752 and 3579.893
TSA melting curve raw signal ([4]; Temperature 40): 3522.761 and 3563.858 and 3607.657
TSA melting curve raw signal ([4]; Temperature 40.5): 3549.068 and 3586.405 and 3638.198
TSA melting curve raw signal ([4]; Temperature 41): 3578.181 and 3611.326 and 3671.73
TSA melting curve raw signal ([4]; Temperature 41.5): 3609.957 and 3638.555 and 3708.036
TSA melting curve raw signal ([4]; Temperature 42): 3645.082 and 3668.877 and 3747.413
TSA melting curve raw signal ([4]; Temperature 42.5): 3683.644 and 3702.365 and 3790.395
TSA melting curve raw signal ([4]; Temperature 43): 3726.411 and 3739.617 and 3837.462
TSA melting curve raw signal ([4]; Temperature 43.5): 3773.558 and 3781.332 and 3888.754
TSA melting curve raw signal ([4]; Temperature 44): 3825.615 and 3827.686 and 3944.903
TSA melting curve raw signal ([4]; Temperature 44.5): 3882.684
TSA melting curve raw fluorescence signal ([4]; Temperature 73.5): 7306.372 and 7609.03 and 7435.601
TSA melting curve raw fluorescence signal ([4]; Temperature 74): 7252.808 and 7555.848 and 7383.062
TSA melting curve raw fluorescence signal ([4]; Temperature 74.5): 7199.861 and 7502.703 and 7330.716
TSA melting curve raw fluorescence signal ([4]; Temperature 75): 7147.275 and 7449.479 and 7278.535
TSA melting curve raw fluorescence signal ([4]; Temperature 75.5): 7094.934 and 7396.013 and 7226.157
TSA melting curve raw fluorescence signal ([4]; Temperature 76): 7042.814 and 7342.543 and 7173.967
TSA melting curve raw fluorescence signal ([4]; Temperature 76.5): 6991.326 and 7288.895 and 7121.791
TSA melting curve raw fluorescence signal ([4]; Temperature 77): 6939.998 and 7235.077 and 7069.532
TSA melting curve raw fluorescence signal ([4]; Temperature 77.5): 6888.609 and 7181.445 and 7017.268
TSA melting curve raw fluorescence signal ([4]; Temperature 78): 6837.679 and 7128.499 and 6965.286
TSA melting curve raw fluorescence signal ([4]; Temperature 78.5): 6786.806 and 7075.655 and 6913.558
TSA melting curve raw fluorescence signal ([4]; Temperature 79): 6735.738 and 7023.249 and 6861.909
TSA melting curve raw fluorescence signal ([4]; Temperature 79.5): 6684.496 and 6971.241 and 6810.337
TSA melting curve raw fluorescence signal ([4]; Temperature 80): 6633.443 and 6919.222 and 6759.175
TSA melting curve raw fluorescence signal ([4]; Temperature 80.5): 6581.916 and 6866.533 and 6708.294
TSA melting curve raw fluorescence signal ([4]; Temperature 81): 6530.578 and 6813.96 and 6657.201
TSA melting curve raw fluorescence signal ([4]; Temperature 81.5): 6479.57 and 6761.335 and 6606.519
TSA melting curve raw fluorescence signal ([4]; Temperature 82): 6428.761 and 6708.745 and 6556.435
TSA melting curve raw fluorescence signal ([4]; Temperature 82.5): 6378.066 and 6656.727 and 6506.333
TSA melting curve raw fluorescence signal ([4]; Temperature 83): 6327.701 and 6605.378 and 6456.007
TSA melting curve raw fluorescence signal ([4]; Temperature 83.5): 6277.373 and 6554.37 and 6405.813
TSA melting curve raw fluorescence signal ([4]; Temperature 84): 6227.075 and 6503.782 and 6355.543
TSA melting curve raw fluorescence signal ([4]; Temperature 84.5): 6177.058 and 6453.083 and 6304.863
TSA melting curve raw fluorescence signal ([4]; Temperature 85): 6127.333 and 6402.172 and 6253.833
TSA melting curve raw fluorescence signal ([4]; Temperature 85.5): 6077.95 and 6351.179 and 6202.991
TSA melting curve raw fluorescence signal ([4]; Temperature 86): 6029.103 and 6299.937 and 6152.723
TSA melting curve raw fluorescence signal ([4]; Temperature 86.5): 5980.562 and 6248.441 and 6102.328
TSA melting curve raw fluorescence signal ([4]; Temperature 87): 5932.235 and 6197.461 and 6052.601
TSA melting curve raw fluorescence signal ([4]; Temperature 87.5): 5883.708 and 6146.127 and 6003.152
TSA melting curve raw fluorescence signal ([4]; Temperature 88): 5834.776 and 6094.257 and 5953.457
TSA melting curve raw fluorescence signal ([4]; Temperature 88.5): 5785.039 and 6042.085 and 5903.221
TSA melting curve raw fluorescence signal ([4]; Temperature 89): 5734.759 and 5989.63 and 5852.78
TSA melting curve raw fluorescence signal ([4]; Temperature 89.5): 5684.264 and 5936.616 and 5801.633
TSA melting curve raw fluorescence signal ([4]; Temperature 90): 5633.721
STD-NMR binding [5]: could not be seen to bind

O=C1NCc2c1c1c3ccccc3[nH]c1c1[nH]c3ccccc3c21 [staurosporine aglycone]
IC50 [6]: 8 µM
decrease in cell viability [7]: 80%
